Reference: PMC10350922, “Allosteric Inhibitors of Macrophage Migration Inhibitory Factor (MIF) Interfere with Apoptosis-Inducing Factor (AIF) Co-Localization to Prevent Parthanatos” (Journal of Medicinal Chemistry, 2023)

Columns and labels:
HeLa cells [1] = assay: Immunofluorescence staining and confocal microscopy (MIF and AIF nuclear translocation); format: cell-based
Protocol: Next, we investigated the mechanism by which 6y protects genome DNA. Considering that […] is a crucial step in parthanatos, we tested if 6y interferes with MIF/AIF binding in vitro. […] Under control conditions, MIF and AIF are mainly located in the cytosol. Upon MNNG treatment, both MIF and AIF translocated to the nucleus.
Immunofluorescence staining was applied to cells to determine the nuclear trans-localization of AIF and MIF. HeLa cells were seeded onto a coverslip and treated with or without 100 μM 6y for 3 h. Then, parthanatos was induced by MNNG (50 μM, 15 min). The same amount of medium in the absence of MNNG was added for the negative control group. After overnight incubation, the cells were fixed with methanol and blocked with 2% BSA in 0.1% PBS-T. AIF and MIF were detected by AIF Monoclonal Antibody (7F7AB10, Invitrogen) and MIF Polyclonal Antibody (PA5-27343, Invitrogen), respectively. Then, AIF and MIF primary antibodies were visualized by Alexa Fluor 647 conjugated anti-Mouse IgG (Invitrogen) and Alexa Fluor 488 conjugated anti-rabbit IgG (Cell Signaling Technology, Leiden, the Netherlands), respectively. After washing, coverslips were mounted onto objective slides with an anti-fading mounting medium with NucBlue stain (Invitrogen). The pictures were acquired using a Leica SP8 confocal laser scanning microscope and analyzed by ImageJ.

MIF [2] = target: T1, MIF (Homo sapiens, UniProt P14174); assay: Jump dilution assay (reversibility of binding); format: biochemical; conditions: 25 μM 6y, 10 min preincubation, 20-fold dilution, 20 min
T1 construct: made in house; host or cells: Escherichia coli BL21, pET-20b(p) plasmid
T1 sequence (P14174 2-115 limits assumed): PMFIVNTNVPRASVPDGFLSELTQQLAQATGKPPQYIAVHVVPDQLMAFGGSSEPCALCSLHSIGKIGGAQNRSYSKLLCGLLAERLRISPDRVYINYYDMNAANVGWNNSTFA
Protocol: To investigate the reversibility of binding, we performed the activity recovery experiment based on pre-incubation of MIF with the inhibitor at saturated concentration followed by jump dilution. The experiment aimed to study the reversibility of the MIF complex with 6y; thus, MIF was preincubated with 25 μM 6y for 10 min before 20-fold dilution and then tested for residual enzyme activity. After 20 min of residence time, MIF tautomerase activity recovered comparably to that expected for instantaneously reversible inhibitors (Figure 4b).
The solution of the enzyme (1.4 μM) was preincubated with a saturating concentration of inhibitor 6y (25 μM) for 10 min. Then, the enzyme–inhibitor mixture was diluted 20-fold with boric acid buffer, then 50 μL of the mixture was mixed with 50 μL of 2 mM PP solution in ammonium acetate buffer, and recovery of the activity was measured over 20 min. In the control groups, no enzyme/inhibitor was added.

HeLa cells [3] = assay: Cell morphology after MNNG treatment; format: cell-based; conditions: pretreatment with 6y, dose- and time-dependent
Description: In addition, cellular morphology was investigated to see if the MIF inhibitor 6y restores the original phenotype.

MIF [4] = target: T1, MIF; assay: Microscale thermophoresis (MST) binding assay; conditions: 25 °C, RED-tris-NTA labeled MIF
Protocol: (§1) A microscale thermophoresis (MST) assay was performed to confirm the binding of 6y to MIF. […] Overall, we concluded that 6y binds reversibly to an allosteric binding site that affects MIF tautomerase activity.
MST experiments were performed on a Monolith NT.115 system (NanoTemper Technologies) using 100% LED and 60% IR-laser power. Laser on and off times were set at 30 and 5 s, respectively. A 100 nM dye solution RED-tris-NTA was prepared by mixing 2 μL of the dye (5 μM in DMSO) and 98 μL of PBS-T. The protein concentration was adjusted to 200 nM, and 100 μL of this solution was added to the tube with dye and incubated at rt for 30 min. Meanwhile, a twofold dilution series of compound 6y was prepared in PBS-T containing 5% DMSO. Subsequently, 10 μL of labeled MIF was mixed with 10 μL of the samples with 16 different concentrations of 6y ranging from 2000 to 0.06 μM. The samples were centrifuged for 10 min at rt and the supernatant was transferred into fresh tubes. After that, the standard treated capillaries (K002) were filled with the solutions and the MST curves were measured at 25 °C.

[5] = Solubility observation in the MST experiment; format: physicochemical; conditions: at concentrations higher than 1000 μM, PBS-T with 5% DMSO
Protocol: as §1

HeLa cells [6] = assay: Cell death determination by flow cytometry (Hoechst 33342 / PI); format: cell-based; conditions: MNNG 50 μM 15 min, with or without 100 μM inhibitor pretreatment, 24 h
MIF [7] = target: T1, MIF; assay: MIF tautomerase activity assay (PP substrate, UV absorbance at 300 nm); format: biochemical
Protocol: Recombinant human MIF with a C-terminal His-tag was expressed and purified following methods published previously.[47] The inhibitory potency for MIF tautomerase activity of the 1-phenyl-1H-1,2,3-triazole-4-carboxamides was measured after pre-incubation with MIF. The MIF-catalyzed PP tautomerization was measured by the corresponding change in UV absorbance over the first 3 min of the reaction.[48] Initial screening of the inhibitory potency was performed at 10 μM inhibitor concentration.
Inhibition of the tautomerase activity and kinetics of MIF was measured using […] (PP) as a substrate. A stock solution was prepared by mixing PP in 50 mM ammonium acetate buffer and adjusted to pH 6.0 using 1.0 M NaOH to provide a concentration of 20 mM. This solution was incubated overnight at 37 °C to allow equilibration of the keto and enol forms and then stored at 4 °C. For the assay, MIF stock solution (10 μL, 70 μM) was diluted in 20 mL of the boric acid buffer (435 mM H3BO3, 1 mM EDTA, pH 6.2) to provide 35 nM solution. The enzyme activity was determined by premixing 192 μL of the MIF dilution with 8 μL of the inhibitors dissolved in DMSO (1 mM). This mixture was preincubated for 10 min. Next, 50 μL of the mixture was mixed with 50 μL of 2 mM PP solution in ammonium acetate buffer. Subsequently, MIF tautomerase activity was monitored by the formation of the borate–enol complex, which was measured by the increase in UV absorbance at 300 nm. The increase in UV absorbance was measured over the first 10 min of incubation using a BioTek Synergy H1 Hybrid plate reader. MIF tautomerase activity in the presence of blank DMSO was set to 100% enzyme activity. […] Data from the first 3 min were used to calculate the initial velocities. All of the graphs were prepared in GraphPad Prism.
For the IC50 measurements, 1 mM solutions of the compounds were double-diluted 10 times in DMSO and subsequently, the MIF tautomerase activity was determined by premixing 190 μL of the MIF dilution with 10 μL of the inhibitors. This mixture was preincubated for 10 min and mixed with the 2 mM PP solution as described above.

**Q.** With O=C(Nc1ccccc1)c1ccc(-n2cc(C(=O)NCc3cccs3)nn2)cc1 [Compound 6y, 1-(4-(Phenylcarbamoyl)phenyl)-N-(thiophen-2-ylmethyl)-1H-1,2,3-triazole-4-carboxamide] as the compound, how does the “AIF nuclear translocation upon MNNG stimulation” value (HeLa cells [1]; 100 μM 6y, MNNG 50 μM 15 min) read?
**A.** uninfluenced

**Q.** What about the “MIF nuclear translocation upon MNNG stimulation” value (HeLa cells [1]; 100 μM 6y, MNNG 50 μM 15 min) of the same compound?
**A.** blocks MIF nuclear translocation

**Q.** And the “MIF localization under control conditions” value (HeLa cells [1]; without MNNG)?
**A.** did not affect MIF localization

**Q.** What about the “Reversibility of binding to MIF” value (MIF [2]) of the same compound?
**A.** reversible

**Q.** What about the “Restoration of original cell phenotype after MNNG” value (HeLa cells [3]) of the same compound?
**A.** mainly (but not completely) restored

**Q.** And the Kd (MIF [4])?
**A.** 95 µM

**Q.** What about the Solubility [5] of the same compound?
**A.** limited solubility

**Q.** And the “Cells stained by PI” value (HeLa cells [6])?
**A.** 20%

**Q.** What about the remaining activity at 10 µM (MIF [7]; 10 μM inhibitor, activity without inhibitor set to 100%, mean, n = 3) of the same compound?
**A.** 12%

**Q.** And the IC50 (MIF [7]; PP as substrate, 10 min preincubation, read-out: IC50, inhibition of MIF tautomerase activity)?
**A.** 1.7 ± 0.1 µM
